Values quoted from earlier work in US20210060105A1, “GINKGO BILOBA EXTRACT COMPOSITE FORMULATION AND USE OF THE SAME” (priority 2019, published 2021).

Key:
[1] = increased from the original 49.7±3.6 mg/dL

CC1=C(/C=C/C(C)=C/C=C/C(C)=C/C=C/C=C(C)/C=C/C=C(C)/C=C/C2=C(C)C(=O)[C@@H](O)CC2(C)C)C(C)(C)C[C@H](O)C1=O [Astaxanthin, astaxanthin]
antioxidant ability relative to vitamin E (compared with vitamin E): 550 times
antioxidant ability relative to β-carotene (compared with β-carotene): 10 times
HDL in vivo after astaxanthin [1]: 66.5 ± 5.1 mg/dL
